Assay results published in patent publication US11872263B2, “AIMP1 protein fragment and hair growth-promoting composition containing same as active ingredient” (CUREBIO THERAPEUTICS, priority 2016, dated 2024).

Test system: CD34+ hair follicle stem cells
Experiment: In vitro hair growth assay / BrdU proliferation assay with CD34+ hair follicle stem cells
Type: cell-based, mouse
Details: each peptide 100 nM, 24 hours
Description: The hair of the dorsal skin of 7 weeks old male C57BL6 mice (purchased from Orient Bio Inc.) were cut with a clipper and skin tissue samples of the depilated dorsal region of the mice were collected. The collected skin tissue samples were immersed in medium using collagenase, DNase I, and hyaluronidase, and cells were isolated using Gentle MACSTM Dissociator (Miltenyi Biotec). After the cells were separated, the separated cells were incubated with a mouse CD34-Biotin antibody (Miltenyi Biotec). Cells and antibody solutions were incubated with streptavidin microbeads (Miltenyi Biotec) and then separated using LS column (Miltenyi Biotec). The separated cells were cultured in DMEM medium containing 10% FBS, 1% penicillin/streptomycin solution in humidified air of 95% 02 and 5% CO2 at 37° C.
Cell proliferation can be confirmed using the BrdU cell proliferation assay kit (Cell Signaling). Proliferation assays were performed using protocols presented by […]. Briefly, the cells were incubated with BrdU for 2 h. The primary BrdU detection antibody was incubated for 1 hour and the secondary anti-mouse IgG, HRP-conjugate antibody was incubated for 30 minutes.
A hair growth in vitro assay was performed using the Cyquant Assay (Thermo Fisher). […]

Sequence	inducing proliferation of CD34+ hair follicle stem cells (relative cell number)
AEADQIIEYLKQQVSLLKEK (Homo sapiens N4 polypeptide; Neo-Pep-(11-30)) [Polypeptide N4, fragment of Neo-Pep consisting of 20 consecutive amino acids without KEKA]	didn't show any effect
AVLKRLEQKGAEADQIIEYL (Homo sapiens N1 polypeptide; Neo-Pep-(1-20)) [Polypeptide N1, fragment of Neo-Pep consisting of 20 consecutive amino acids without KEKA]	didn't show any effect
IEYLKQQVSLLKEKAILQAT (Homo sapiens N5 polypeptide; Neo-Pep-(17-36)) [Polypeptide N5, fragment of Neo-Pep comprising KEKA]	induced proliferation
KGAEADQIIEYLKQQVSLLK (Homo sapiens N3 polypeptide; Neo-Pep-(9-28)) [Polypeptide N3, fragment of Neo-Pep consisting of 20 consecutive amino acids without KEKA]	didn't show any effect
KQQVSLLKEKAILQATLREE (Homo sapiens N7 polypeptide; Neo-Pep-(21-40)) [Polypeptide N7, fragment of Neo-Pep comprising KEKA]	induced proliferation
LKRLEQKGAEADQIIEYLKQ (Homo sapiens N2 polypeptide; Neo-Pep-(3-22)) [Polypeptide N2, fragment of Neo-Pep consisting of 20 consecutive amino acids without KEKA]	didn't show any effect
QVSLLKEKAILQATLREEK (Homo sapiens N8 polypeptide; Neo-Pep-(23-41)) [Polypeptide N8, fragment of Neo-Pep comprising KEKA]	induced proliferation
YLKQQVSLLKEKAILQATLR (Homo sapiens N6 polypeptide; Neo-Pep-(19-38)) [Polypeptide N6, fragment of Neo-Pep comprising KEKA]	induced proliferation

Test system: dorsal hair of depilated C57BL6 mice
Experiment: In vivo hair regrowth after depilation of dorsal skin of mice
Parameters: species or system mouse
Details: 13 days after depilation, 100 nM polypeptide, 80 μl topical once a day
Description: (§1) The hair of the dorsal skin of mice (7 weeks old male C57BL6, purchased from Orient Bio Inc.) was cut out with a clipper, and hair removal cream (Niclean, Ildong Pharmaceutical) was applied. The depilated area was about 2×2.5 cm. Mice were treated with 20% glycerol/PBS (control group), 3% Minoxidil (MNX, 140 mM), FGF7 (100 nM) or Neo-Pep of the present invention (polypeptide of SEQ ID NO: 1, 100 nM), respectively, once a day in 80 μl using brush, for 13 days (n=6 per group).
as §1, with “Specifically, the hair” for “The hair”, “of a mouse” for “of mice”, “group). For comparative observation, the dorsal skin of the mouse was photographed before and after the beginning of the test.” for “group).”

Sequence	dorsal hair growth compared with control group
ADQIIEYLKQQVSLL (Homo sapiens N11 polypeptide; Neo-Pep-(13-27)) [Polypeptide N11, fragment of Neo-Pep consisting of 15 amino acids without KEKA]	didn't show such effect
AVLKRLEQKGAEADQ (Homo sapiens N9 polypeptide; Neo-Pep-(1-15)) [Polypeptide N9, fragment of Neo-Pep consisting of 15 amino acids without KEKA]	didn't show such effect
EADQIIEYLKQQVSL (Homo sapiens N10 polypeptide; Neo-Pep-(12-26)) [Polypeptide N10, fragment of Neo-Pep consisting of 15 amino acids without KEKA]	didn't show such effect
IEYLKQQVSLLKEKA (Homo sapiens N12 polypeptide; Neo-Pep-(17-31)) [Polypeptide N12, fragment of Neo-Pep consisting of 15 amino acids comprising KEKA]	grew much more
KQQVSLLKEKAILQA (Homo sapiens N13 polypeptide; Neo-Pep-(21-35)) [Polypeptide N13, fragment of Neo-Pep consisting of 15 amino acids comprising KEKA]	grew much more
LKEKAILQATLREEK (Homo sapiens N14 polypeptide; Neo-Pep-(27-41)) [Polypeptide N14, fragment of Neo-Pep consisting of 15 amino acids comprising KEKA]	grew much more
